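Each compound was tested at five concentrations against cells in 96-well plates for 48 hours. At the GI50, growth is halved.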 Active and inactive are the calls of the source. Rule as the data show it: active = GI50 up to about 1.1 µM and inactive = higher.
Experiments:
Assay in all cases: NCI tumour cell line growth inhibition, 48 h
DU-145 = test system: DU-145
OVCAR-8 = test system: OVCAR-8
MDA-MB-435 = test system: MDA-MB-435
HCT-15 = test system: HCT-15
COLO 205 = test system: COLO 205
NCI-H460 = test system: NCI-H460
HOP-92 = test system: HOP-92
ACHN = test system: ACHN
SW-620 = test system: SW-620
MDA-MB-231 = test system: MDA-MB-231
NCI/ADR-RES = test system: NCI/ADR-RES
T47D = test system: T47D
NCI-H226 = test system: NCI-H226
SK-MEL-28 = test system: SK-MEL-28
TK-10 = test system: TK-10
CCRF-CEM = test system: CCRF-CEM
A498 = test system: A498
786-0 = test system: 786-0

| SMILES | GI50 (DU-145) | GI50 (OVCAR-8) | GI50 (MDA-MB-435) | GI50 (HCT-15) [µM] | GI50 (COLO 205) | GI50 (NCI-H460) | GI50 (HOP-92) | GI50 (ACHN) | GI50 (SW-620) | GI50 (MDA-MB-231) | GI50 (NCI/ADR-RES) | GI50 (T47D) | GI50 (NCI-H226) | GI50 (SK-MEL-28) | GI50 (TK-10) | GI50 (CCRF-CEM) | GI50 (A498) | GI50 (786-0) |
| --- | --- | --- | --- | --- | --- | --- | --- | --- | --- | --- | --- | --- | --- | --- | --- | --- | --- | --- |
| COc1cc(C(=O)NC(CCN)(c2ccccc2)c2ccccc2)cc(OC)c1OC | > 31.6 µM (inactive) | > 31.6 µM (inactive) | 16 µM (inactive) | > 31.6 | 14.1 µM (inactive) | 19.2 µM (inactive) | 15.3 µM (inactive) | 24.8 µM (inactive) | 29.6 µM (inactive) | 16.9 µM (inactive) | 42.7 µM (inactive) | 23.4 µM (inactive) | 30.8 µM (inactive) | 13.8 µM (inactive) | 28.8 µM (inactive) | > 10 µM (inactive) | 12.6 µM (inactive) | 22.9 µM (inactive) |
| CC#CC(O)(C(=O)OC1CCC2CCC1N2C)C1CCCC1 (stereo not drawn) | > 100 µM (inactive) | > 100 µM (inactive) | – | > 100 | > 100 µM (inactive) | – | – | > 10 µM (inactive) | > 100 µM (inactive) | > 100 µM (inactive) | > 10 µM (inactive) | > 100 µM (inactive) | > 100 µM (inactive) | > 100 µM (inactive) | > 100 µM (inactive) | – | – | > 100 µM (inactive) |
| O=C(O)CSc1nnc(-c2ccc(O)cc2)[nH]1 | – | > 100 µM (inactive) | – | > 100 | > 100 µM (inactive) | > 100 µM (inactive) | > 100 µM (inactive) | > 100 µM (inactive) | > 100 µM (inactive) | – | – | – | > 100 µM (inactive) | > 100 µM (inactive) | > 100 µM (inactive) | > 100 µM (inactive) | > 100 µM (inactive) | > 100 µM (inactive) |
| O=C(/C(=N/Nc1cn[nH]c(=O)c1Cl)c1ccccc1)c1ccccc1 | 20.5 µM (inactive) | 36.1 µM (inactive) | 5.11 µM (inactive) | 12.6 | 20.3 µM (inactive) | – | 24.8 µM (inactive) | 57.9 µM (inactive) | 31.3 µM (inactive) | 24.7 µM (inactive) | 17.5 µM (inactive) | 28.4 µM (inactive) | 25.3 µM (inactive) | 45.1 µM (inactive) | 24.9 µM (inactive) | 32.4 µM (inactive) | 14.7 µM (inactive) | 16 µM (inactive) |
| COC(=O)CCc1ccc2c(c1)CC1(C2)Cc2ccc(CCC(=O)OC)cc2C1 | – | 60.1 µM (inactive) | > 100 µM (inactive) | > 100 | 57.5 µM (inactive) | – | 35.4 µM (inactive) | > 100 µM (inactive) | – | 89.9 µM (inactive) | > 100 µM (inactive) | 58.2 µM (inactive) | 38.8 µM (inactive) | – | > 100 µM (inactive) | 15.6 µM (inactive) | > 100 µM (inactive) | > 100 µM (inactive) |
| CN(CC(=O)O)c1ncc2c(n1)-c1ccccc1CC2 | > 100 µM (inactive) | > 100 µM (inactive) | > 100 µM (inactive) | > 100 | > 100 µM (inactive) | > 100 µM (inactive) | > 100 µM (inactive) | > 100 µM (inactive) | > 100 µM (inactive) | > 100 µM (inactive) | > 100 µM (inactive) | – | > 100 µM (inactive) | > 100 µM (inactive) | > 100 µM (inactive) | > 100 µM (inactive) | > 100 µM (inactive) | > 100 µM (inactive) |
| COc1ccc(N2C(=O)C(=O)C3(CCCCC3)C2=O)c2ccccc12 | > 10 µM (inactive) | > 10 µM (inactive) | > 10 µM (inactive) | > 10 | > 10 µM (inactive) | > 10 µM (inactive) | – | > 10 µM (inactive) | > 10 µM (inactive) | > 10 µM (inactive) | > 10 µM (inactive) | > 10 µM (inactive) | > 10 µM (inactive) | > 10 µM (inactive) | > 10 µM (inactive) | > 10 µM (inactive) | > 10 µM (inactive) | – |
